Reference: US9789111B2, “Casein kinase 1δ (CK 1δ) inhibitors” (Electrophoretics Limited, priority 2010, dated 2017)

Experiments:
Test in all cases: kinase inhibition assay panel
Format in all cases: biochemical
CK1g2 = CK1g2 (Homo sapiens, UniProt P78368)
EGFR = EGFR (Homo sapiens, UniProt P00533)
YES/YES1 = YES/YES1 (Homo sapiens, UniProt P07947)
Experimental: (§1) Base Reaction buffer; 20 mM Hepes (pH 7.5), 10 mM MgCl2, 1 mM EGTA, 0.02% Brij35, 0.02 mg/ml BSA, 0.1 mM Na3VO4, 2 mM DTT, 1% DMSO
(§2) It should be noted that required cofactors are added individually to each kinase reaction.
(§3) • 1. Prepare indicated substrate in freshly prepared Base Reaction Buffer as described above • 2. Deliver any required cofactors to the substrate solution • 3. Deliver indicated kinase into the substrate solution and gently mix • 4. Deliver compounds in DMSO into the kinase reaction mixture • 5. Deliver ^33P-ATP (specific activity 0.01 μCi/μl final) into the reaction mixture to initiate the reaction • 6. Incubate kinase reaction for 120 min. at room temperature • 7. Reactions are spotted onto P81 ion exchange paper (Whatman #3698-915) • 8. Wash filters extensively in 0.75% Phosphoric acid Kinase Information: • CK1δ—Genbank Accession # NP_620693 • Recombinant human full-length construct. GST-tagged, expressed in insect cells. • Final concentration in assay=4 nM • Substrate: CK1tide • Substrate sequence: [KRRRAL[pS]VASLPGL] • Final substrate concentration in assay=20 μM • It should be noted that no additional cofactors are added to the reaction mixture.

RIPK2 = RIPK2 (Homo sapiens, UniProt O43353)
RIPK2, sequence (O43353 whole entry, species assumed): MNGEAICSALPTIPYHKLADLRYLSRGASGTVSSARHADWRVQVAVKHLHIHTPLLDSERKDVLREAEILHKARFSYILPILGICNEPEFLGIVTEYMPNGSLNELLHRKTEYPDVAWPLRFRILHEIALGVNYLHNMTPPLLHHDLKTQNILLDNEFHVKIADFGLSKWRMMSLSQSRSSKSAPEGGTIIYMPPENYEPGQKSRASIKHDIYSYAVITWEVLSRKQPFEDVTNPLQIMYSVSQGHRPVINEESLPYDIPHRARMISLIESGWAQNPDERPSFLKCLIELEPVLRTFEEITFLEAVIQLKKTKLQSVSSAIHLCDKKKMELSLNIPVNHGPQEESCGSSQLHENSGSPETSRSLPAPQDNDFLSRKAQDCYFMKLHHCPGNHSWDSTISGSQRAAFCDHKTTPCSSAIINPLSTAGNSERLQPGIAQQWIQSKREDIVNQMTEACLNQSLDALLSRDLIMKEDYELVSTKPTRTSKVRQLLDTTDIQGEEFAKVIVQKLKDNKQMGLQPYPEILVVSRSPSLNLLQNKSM
Experimental: as §1, §2, §3

PKA = PKA (Homo sapiens, UniProt P17612)
Experimental: as §1, §2, §3

ALK4/ACVR1B = ALK4/ACVR1B (Homo sapiens, UniProt P36896)
ALK4/ACVR1B, sequence (P36896 24-505): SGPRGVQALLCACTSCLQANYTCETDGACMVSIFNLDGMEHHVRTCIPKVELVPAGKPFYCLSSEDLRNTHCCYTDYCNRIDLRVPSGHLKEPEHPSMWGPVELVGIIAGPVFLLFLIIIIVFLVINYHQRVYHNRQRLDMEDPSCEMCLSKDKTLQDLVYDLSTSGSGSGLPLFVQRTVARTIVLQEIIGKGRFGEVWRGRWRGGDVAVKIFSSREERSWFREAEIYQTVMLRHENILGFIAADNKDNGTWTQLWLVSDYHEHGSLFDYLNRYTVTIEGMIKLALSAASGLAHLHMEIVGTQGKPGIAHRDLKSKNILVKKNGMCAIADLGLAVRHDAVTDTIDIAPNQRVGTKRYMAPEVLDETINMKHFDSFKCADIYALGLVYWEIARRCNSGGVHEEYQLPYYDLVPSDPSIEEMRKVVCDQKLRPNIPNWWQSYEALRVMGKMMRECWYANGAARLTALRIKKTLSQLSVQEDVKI
Experimental: as §1, §2, §3

EPHA2 = EPHA2 (Homo sapiens, UniProt P29317)
EPHA2, sequence (P29317 24-976, species assumed): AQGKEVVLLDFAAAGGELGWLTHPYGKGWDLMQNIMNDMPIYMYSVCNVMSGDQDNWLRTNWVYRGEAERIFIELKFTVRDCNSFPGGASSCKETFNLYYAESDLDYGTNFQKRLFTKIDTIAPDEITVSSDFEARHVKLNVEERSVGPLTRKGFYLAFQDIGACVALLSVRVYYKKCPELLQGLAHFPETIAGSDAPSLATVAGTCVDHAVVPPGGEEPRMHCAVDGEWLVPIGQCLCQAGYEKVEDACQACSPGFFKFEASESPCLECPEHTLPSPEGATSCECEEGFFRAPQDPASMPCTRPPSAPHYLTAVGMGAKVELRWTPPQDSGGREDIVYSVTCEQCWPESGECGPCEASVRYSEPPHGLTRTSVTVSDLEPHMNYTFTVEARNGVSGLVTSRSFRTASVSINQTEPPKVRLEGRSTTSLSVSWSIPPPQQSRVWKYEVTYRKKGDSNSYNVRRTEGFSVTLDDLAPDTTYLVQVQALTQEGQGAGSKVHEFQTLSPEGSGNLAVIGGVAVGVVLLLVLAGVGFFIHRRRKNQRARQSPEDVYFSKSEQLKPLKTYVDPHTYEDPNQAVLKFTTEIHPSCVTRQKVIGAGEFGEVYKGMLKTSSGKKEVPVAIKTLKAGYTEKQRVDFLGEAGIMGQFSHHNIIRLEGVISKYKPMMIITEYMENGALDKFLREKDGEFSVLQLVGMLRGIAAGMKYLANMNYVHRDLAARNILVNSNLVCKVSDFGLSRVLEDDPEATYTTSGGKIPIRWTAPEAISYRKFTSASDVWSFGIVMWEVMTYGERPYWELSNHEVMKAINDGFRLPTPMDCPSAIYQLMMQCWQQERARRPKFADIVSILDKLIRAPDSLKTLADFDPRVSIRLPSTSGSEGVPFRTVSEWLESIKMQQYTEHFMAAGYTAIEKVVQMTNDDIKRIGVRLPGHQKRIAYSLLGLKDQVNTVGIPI
Experimental: as §1, §2, §3

ALK5/TGFBR1 = ALK5/TGFBR1 (Homo sapiens, UniProt P36897)
ALK5/TGFBR1, sequence (P36897 34-503): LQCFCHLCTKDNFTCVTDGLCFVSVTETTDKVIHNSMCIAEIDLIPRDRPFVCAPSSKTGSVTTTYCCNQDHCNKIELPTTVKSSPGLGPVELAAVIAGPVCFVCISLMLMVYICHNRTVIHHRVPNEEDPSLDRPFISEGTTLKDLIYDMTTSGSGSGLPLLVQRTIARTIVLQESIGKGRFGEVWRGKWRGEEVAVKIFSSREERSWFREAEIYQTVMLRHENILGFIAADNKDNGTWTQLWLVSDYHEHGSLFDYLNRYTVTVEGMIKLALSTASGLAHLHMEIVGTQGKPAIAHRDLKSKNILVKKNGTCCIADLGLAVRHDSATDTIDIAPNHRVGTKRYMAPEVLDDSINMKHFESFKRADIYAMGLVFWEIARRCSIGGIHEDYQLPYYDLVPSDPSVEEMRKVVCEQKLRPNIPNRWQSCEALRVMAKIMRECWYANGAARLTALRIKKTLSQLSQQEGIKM

CK1a1 = CK1a1 (Homo sapiens, UniProt P48729)
CK1a1, sequence (P48729 whole entry): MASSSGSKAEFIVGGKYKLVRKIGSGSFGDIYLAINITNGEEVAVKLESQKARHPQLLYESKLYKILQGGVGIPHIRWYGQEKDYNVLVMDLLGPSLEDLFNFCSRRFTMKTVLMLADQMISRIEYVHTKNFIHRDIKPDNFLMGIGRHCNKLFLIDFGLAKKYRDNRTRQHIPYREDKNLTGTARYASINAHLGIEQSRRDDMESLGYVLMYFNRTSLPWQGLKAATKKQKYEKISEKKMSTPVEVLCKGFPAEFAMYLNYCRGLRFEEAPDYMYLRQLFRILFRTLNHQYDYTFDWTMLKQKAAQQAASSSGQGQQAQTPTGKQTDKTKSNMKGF

CK1g2, sequence (P78368 whole entry, species assumed): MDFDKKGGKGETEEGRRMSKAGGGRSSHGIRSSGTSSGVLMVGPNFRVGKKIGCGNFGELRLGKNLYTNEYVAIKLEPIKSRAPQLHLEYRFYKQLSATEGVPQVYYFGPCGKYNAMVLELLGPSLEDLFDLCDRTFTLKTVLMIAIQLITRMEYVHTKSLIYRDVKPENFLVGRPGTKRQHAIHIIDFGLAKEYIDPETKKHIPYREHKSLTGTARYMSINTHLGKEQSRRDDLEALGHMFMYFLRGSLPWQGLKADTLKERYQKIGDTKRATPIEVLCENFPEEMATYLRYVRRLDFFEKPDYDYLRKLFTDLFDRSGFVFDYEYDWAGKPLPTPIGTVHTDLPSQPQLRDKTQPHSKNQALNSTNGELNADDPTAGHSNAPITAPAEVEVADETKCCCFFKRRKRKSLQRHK
EGFR, sequence (P00533 25-1210, species assumed): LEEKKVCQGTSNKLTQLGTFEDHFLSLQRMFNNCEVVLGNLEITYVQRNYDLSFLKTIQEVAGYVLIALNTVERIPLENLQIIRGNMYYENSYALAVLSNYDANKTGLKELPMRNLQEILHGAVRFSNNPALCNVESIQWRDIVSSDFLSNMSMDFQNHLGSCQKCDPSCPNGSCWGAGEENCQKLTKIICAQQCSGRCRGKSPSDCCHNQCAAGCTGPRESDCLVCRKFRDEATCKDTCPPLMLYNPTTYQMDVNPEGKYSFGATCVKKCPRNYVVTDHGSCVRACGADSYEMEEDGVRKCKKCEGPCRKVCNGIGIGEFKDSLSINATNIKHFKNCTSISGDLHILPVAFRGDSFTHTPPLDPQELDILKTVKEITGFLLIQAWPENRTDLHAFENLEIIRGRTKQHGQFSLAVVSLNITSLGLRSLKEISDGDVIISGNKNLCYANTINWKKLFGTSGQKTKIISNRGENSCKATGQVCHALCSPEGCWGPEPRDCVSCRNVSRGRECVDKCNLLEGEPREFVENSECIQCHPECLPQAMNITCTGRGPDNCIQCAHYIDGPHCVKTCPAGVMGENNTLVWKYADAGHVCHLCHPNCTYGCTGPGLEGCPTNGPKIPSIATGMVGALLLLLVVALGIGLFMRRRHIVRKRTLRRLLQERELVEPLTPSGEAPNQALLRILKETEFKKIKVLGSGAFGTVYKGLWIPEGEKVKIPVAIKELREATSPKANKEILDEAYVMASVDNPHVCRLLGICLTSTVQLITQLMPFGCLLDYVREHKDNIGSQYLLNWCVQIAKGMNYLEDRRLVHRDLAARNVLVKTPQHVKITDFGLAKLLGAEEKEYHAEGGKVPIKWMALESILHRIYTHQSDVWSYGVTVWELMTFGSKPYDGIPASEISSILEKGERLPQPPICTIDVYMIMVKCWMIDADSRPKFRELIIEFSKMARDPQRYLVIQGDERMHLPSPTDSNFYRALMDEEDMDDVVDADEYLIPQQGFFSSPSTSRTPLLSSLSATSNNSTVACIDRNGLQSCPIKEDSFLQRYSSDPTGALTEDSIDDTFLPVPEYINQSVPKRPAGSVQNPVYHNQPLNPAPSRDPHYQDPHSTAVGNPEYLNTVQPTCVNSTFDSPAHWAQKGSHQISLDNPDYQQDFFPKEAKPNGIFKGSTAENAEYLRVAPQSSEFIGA
YES/YES1, sequence (P07947 whole entry): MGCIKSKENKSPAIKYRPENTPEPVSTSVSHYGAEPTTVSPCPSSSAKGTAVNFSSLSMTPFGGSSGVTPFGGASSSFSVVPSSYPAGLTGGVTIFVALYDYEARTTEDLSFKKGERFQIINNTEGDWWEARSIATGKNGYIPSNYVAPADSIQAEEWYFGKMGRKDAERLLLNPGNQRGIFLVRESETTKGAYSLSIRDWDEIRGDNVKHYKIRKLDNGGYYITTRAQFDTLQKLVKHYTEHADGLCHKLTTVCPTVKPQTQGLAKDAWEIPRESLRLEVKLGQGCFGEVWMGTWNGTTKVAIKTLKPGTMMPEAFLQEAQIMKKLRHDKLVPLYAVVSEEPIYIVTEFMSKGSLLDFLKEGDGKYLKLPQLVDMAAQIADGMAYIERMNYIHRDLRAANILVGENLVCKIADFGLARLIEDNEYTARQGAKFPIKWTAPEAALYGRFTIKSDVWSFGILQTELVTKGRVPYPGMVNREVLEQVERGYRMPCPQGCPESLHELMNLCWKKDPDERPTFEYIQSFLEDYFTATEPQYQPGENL

| inhibition of CK1g2 (CK1g2) | inhibition of EGFR (EGFR) | inhibition of YES/YES1 (YES/YES1) | inhibition of RIPK2 (RIPK2) | inhibition of PKA (PKA) | inhibition of ALK4/ACVR1B (ALK4/ACVR1B) | inhibition of EPHA2 (EPHA2) | inhibition of ALK5/TGFBR1 (ALK5/TGFBR1) | inhibition of CK1a1 (CK1a1) | Compound |
| --- | --- | --- | --- | --- | --- | --- | --- | --- | --- |
| lower than 40% |  |  |  |  |  |  |  |  | NC(=O)c1c(N)c(C(=O)c2ccc(F)cc2)n2ccccc12 [Compound 987, 2-amino-3-[(4-fluorophenyl)carbonyl]indolizine-1-carboxamide] |
|  | lower than 40% | lower than 40% | lower than 40% | lower than 40% | lower than 40% | lower than 40% | lower than 40% | lower than 40% | Nc1ncc(-c2nc3ccccc3o2)c(-c2ccncc2)n1 [Compound 324, 5-(1,3-benzoxazol-2-yl)-4-(pyridin-4-yl)pyrimidin-2-amine] |
